Test results published in ChEMBL document CHEMBL1212761, “Biologic activities of the TolC-like protein of Neisseria meningitidis as assessed by functional complementation in Escherichia coli” (2010).
≈ marks a conversion by molar mass, not a printed value.

Assays:
Assay type in all cases: functional
Neisseria meningitidis [1] = test: Antimicrobial activity against Neisseria meningitidis M7mtrE::Spc by agar dilution method
Neisseria meningitidis [2] = test: Antimicrobial activity against Neisseria meningitidis M7tolC::Kan mtr::Spc by agar dilution method
Neisseria meningitidis [3] = test: Antimicrobial activity against Neisseria meningitidis M7tolC::Kan by agar dilution method
Neisseria meningitidis [4] = test: Antimicrobial activity against Neisseria meningitidis M7 by agar dilution method
Escherichia coli [5] = test: Antimicrobial activity against Escherichia cloi RAM1129 transfected with pNK1 containg Neisseria meningitidis tolC gene by agar dilution method
Escherichia coli [6] = test: Antimicrobial activity against Escherichia cloi RAM1129 transfected with pGCC4 containg IPTG-inducible lacZ promoter by agar dilution method
Escherichia coli [7] = test: Antimicrobial activity against Escherichia cloi RAM4100 transfected with pGCC4 containg IPTG-inducible lacZ promoter by agar dilution method
Escherichia coli [8] = test: Antimicrobial activity against Escherichia cloi RAM4100 transfected with pNK1 containg Neisseria meningitidis tolC gene by agar dilution method
Escherichia coli [9] = test: Antimicrobial activity against Escherichia coli RAM4100 by agar dilution method
Escherichia coli [10] = test: Antimicrobial activity against Escherichia coli RAM1129 by agar dilution method

| Compound | MIC (Neisseria meningitidis [1]) | MIC (Neisseria meningitidis [2]) | MIC (Neisseria meningitidis [3]) | MIC (Neisseria meningitidis [4]) | MIC (Escherichia coli [9]) | MIC (Escherichia coli [10]) | MIC (Escherichia coli [5]) | MIC (Escherichia coli [6]) | MIC (Escherichia coli [7]) | MIC (Escherichia coli [8]) |
| --- | --- | --- | --- | --- | --- | --- | --- | --- | --- | --- |
| CC[C@H](C)[C@H](NC(=O)[C@H](CCCCN)NC(=O)[C@H](CCC(=O)O)NC(=O)[C@H](CCCCN)NC(=O)[C@H](CO)NC(=O)[C@H](CCCCN)NC(=O)[C@H](CCCNC(=N)N)NC(=O)[C@H](Cc1ccccc1)NC(=O)[C@H](Cc1ccccc1)NC(=O)[C@H](CC(=O)O)NC(=O)CNC(=O)[C@H](CC(C)C)NC(=O)[C@@H](N)CC(C)C)C(=O)NCC(=O)N[C@@H](CCCCN)C(=O)N[C@@H](CCC(=O)O)C(=O)N[C@@H](Cc1ccccc1)C(=O)N[C@@H](CCCCN)C(=O)N[C@@H](CCCNC(=N)N)C(=O)N[C@H](C(=O)N[C@H](C(=O)N[C@@H](CCC(N)=O)C(=O)N[C@@H](CCCNC(=N)N)C(=O)N[C@H](C(=O)N[C@@H](CCCCN)C(=O)N[C@@H](CC(=O)O)C(=O)N[C@@H](Cc1ccccc1)C(=O)N[C@@H](CC(C)C)C(=O)N[C@@H](CCCNC(=N)N)C(=O)N[C@@H](CC(N)=O)C(=O)N[C@@H](CC(C)C)C(=O)N[C@H](C(=O)N1CCC[C@H]1C(=O)N[C@@H](CCCNC(=N)N)C(=O)N[C@H](C(=O)N[C@@H](CCC(=O)O)C(=O)N[C@@H](CO)C(=O)O)[C@@H](C)O)C(C)C)[C@@H](C)CC)C(C)C)[C@@H](C)CC [CATHELICIDIN] | 1.98 mg/L (≈ 0.441 µM) | 1.98 mg/L (≈ 0.441 µM) | 7.8 mg/L (≈ 1.74 µM) | 7.8 mg/L (≈ 1.74 µM) |  |  |  |  |  |  |
| CC[C@H]1OC(=O)[C@H](C)[C@@H](O[C@H]2C[C@@](C)(OC)[C@@H](O)[C@H](C)O2)[C@H](C)[C@@H](O[C@@H]2O[C@H](C)C[C@H](N(C)C)[C@H]2O)[C@](C)(O)C[C@@H](C)C(=O)[C@H](C)[C@@H](O)[C@]1(C)O [ERYTHROMYCIN] |  |  |  |  |  |  | 5 mg/L (≈ 6.81 µM) | 5 mg/L (≈ 6.81 µM) | 300 mg/L (≈ 409 µM) | 300 mg/L (≈ 409 µM) |
| CC[n+]1c(-c2ccccc2)c2cc(N)ccc2c2ccc(N)cc21.[Br-] [HOMIDIUM BROMIDE] | 0.75 mg/L | 0.75 mg/L | 12 mg/L | 12 mg/L | > 200 mg/L | 5 mg/L | > 200 mg/L | 5 mg/L |  |  |
| CCCCCCCCCCCCCCCC(=O)O [PALMITIC ACID] | 50 mg/L (≈ 195 µM) | 50 mg/L (≈ 195 µM) | 400 mg/L (≈ 1560 µM) | 400 mg/L (≈ 1560 µM) |  |  |  |  |  |  |

Continued, in another order:

| MIC (Neisseria meningitidis [1]) | MIC (Neisseria meningitidis [2]) | MIC (Neisseria meningitidis [3]) | MIC (Neisseria meningitidis [4]) | MIC (Escherichia coli [9]) | MIC (Escherichia coli [10]) | Compound | MIC (Escherichia coli [5]) | MIC (Escherichia coli [6]) | MIC (Escherichia coli [7]) | MIC (Escherichia coli [8]) |
| --- | --- | --- | --- | --- | --- | --- | --- | --- | --- | --- |
| 0.125 mg/L (≈ 0.167 µM) | 0.125 mg/L (≈ 0.167 µM) | 2 mg/L (≈ 2.67 µM) | 2 mg/L (≈ 2.67 µM) |  |  | CC[C@H]1OC(=O)[C@H](C)[C@@H](O[C@H]2C[C@@](C)(OC)[C@@H](O)[C@H](C)O2)[C@H](C)[C@@H](O[C@@H]2O[C@H](C)C[C@H](N(C)C)[C@H]2O)[C@](C)(O)C[C@@H](C)CN(C)[C@H](C)[C@@H](O)[C@]1(C)O [AZITHROMYCIN] |  |  |  |  |
| 0.02 mg/L (≈ 0.0604 µM) | 0.02 mg/L (≈ 0.0604 µM) | 0.02 mg/L (≈ 0.0604 µM) | 0.02 mg/L (≈ 0.0604 µM) |  |  | O=C(O)c1cn(C2CC2)c2cc(N3CCNCC3)c(F)cc2c1=O [CIPROFLOXACIN] |  |  |  |  |
|  |  |  |  | > 40 mg/L | 1.5 mg/L | CN(C)c1ccc(C(=C2C=CC(=[N+](C)C)C=C2)c2ccc(N(C)C)cc2)cc1.[Cl-] [GENTIAN VIOLET] | > 40 mg/L | 1.5 mg/L |  |  |
|  |  |  |  | 500 mg/L (≈ 816 µM) | 40 mg/L (≈ 65.3 µM) | CO[C@@H]1[C@@H](OC(N)=O)[C@@H](O)[C@H](Oc2ccc3c(O)c(NC(=O)c4ccc(O)c(CC=C(C)C)c4)c(=O)oc3c2C)OC1(C)C [NOVOBIOCIN] | 500 mg/L (≈ 816 µM) | 40 mg/L (≈ 65.3 µM) |  |  |
